This note sets out measurements from patent US6716859B2, “Substituted N′-(Arylcarbonyl)-benzhydrazides, N′(Arylcarbonyl)-benzylidene-hydrazides and analogs as activators of caspases and inducers of apoptosis and the use thereof” (Cytovia, Inc., priority 2001, dated 2004).

The test system of experiment [1] is breast and non-breast cancer cells. The experiment can be described thus: Cell proliferation assay, breast versus non-breast cancer cell lines. Type of experiment: cell-based. The settings on record: conclusion from Tables III and IV. How it is done:
(§1) T-47D and ZR-75-1 cells were grown and harvested as in Example 43. An aliquot of 90 μl of cells (2.2×10^4 cells/ml) was added to a well of a 96-well microtiter plate containing 10 μl of a 10% DMSO in RPMI-1640 media solution containing 1 nM to 100 μM of N′-(2-phenoxypyridine-3-carbonyl)-3-(trifluoromethyl)benzhydrazide (0.1 nM to 10 μM final). An aliquot of 90 μl of cells was added to a well of a 96-well microtiter plate containing 10 μl of a 10% DMSO in RPMI-1640 media solution without compound as the control sample for maximal cell proliferation (AMax). The samples were mixed by agitation and then incubated at 37° C. for 48 h in a 5% CO2-95% humidity incubator. After incubation, the samples were removed from the incubator and 20 μl of CellTiter 96 AQUEOUS One Solution Cell Proliferation™ reagent (Promega) was added. The samples were mixed by agitation and incubated at 37° C. for 2-4 h in a 5% CO2-95% humidity incubator. Using an absorbance plate reader (Model 1420 Wallac Instruments), an initial reading (T=0) was made approximately 1-2 min after addition of the solution, employing absorbance at 490 nm. This determines the possible background absorbance of the test compounds. No absorbance for N′-(2-phenoxypyridine-3-carbonyl)-3-(trifluoromethyl)benzhydrazide was found at 490 nm. After the 2-4 h incubation, the samples were read for absorbance as above (ATest).
Baseline for GI50 (dose for 50% inhibition of cell proliferation) of initial cell numbers were determined by adding an aliquot of 90 μl of cells or 90 μl of media, respectively, to wells of a 96-well microtiter plate containing 10 μl of a 10% DMSO in RPMI-1640 media solution. The samples were mixed by agitation and then incubated at 37° C. for 0.5 h in a 5% CO2-95% humidity incubator. After incubation, the samples were removed from the incubator and 20 μl of CellTiter 96 AQUEOUS One Solution Cell Proliferation™ reagent (Promega) was added. The samples were mixed by agitation and incubated at 37° C. for 2-4 h in a 5% CO2-95% humidity incubator. […]

Experiment [2] relates to T-47D. Put plainly: Cell proliferation assay (GI50). The note with it: 48 h. Type of experiment: cell-based, Human. How it is done:
as §1
(§2) Baseline for GI50 (dose for 50% inhibition of cell proliferation) of initial cell numbers were determined by adding an aliquot of 90 μl of cells or 90 μl of media, respectively, to wells of a 96-well microtiter plate containing 10 μl of a 10% DMSO in RPMI-1640 media solution. The samples were mixed by agitation and then incubated at 37° C. for 0.5 h in a 5% CO2-95% humidity incubator. After incubation, the samples were removed from the incubator and 20 μl of CellTiter 96 AQUEOUS One Solution Cell Proliferation™ reagent (Promega) was added. The samples were mixed by agitation and incubated at 37° C. for 2-4 h in a 5% CO2-95% humidity incubator. Absorbance was read as above, (AStart) defining absorbance for initial cell number used as baseline in GI50 determinations.
(§3) GI50 (dose for 50% inhibition of cell proliferation) is the concentration where [(ATest−AStart)/(AMax−AStart)]=0.5
(§4) T-47D, ZR-75-l, MX-1, SK-Br-3, MCF-7, Panc-1, K562 and PC-3 cells were grown according to the conditions recommended by American Type Culture Collection. SW620 and NCI-H23 were grown according to the conditions provided by National Cancer Institute. The cell proliferation assay and the calculations of GI50 were performed as in Example 21 (Tables III and IV).

Experiment [3] concerns MCF-7. Put plainly: Cell proliferation assay (GI50). It is filed as cell-based. The settings on record: Homo sapiens, MCF7. How it is done:
as §1, §2, §3, §4

The subject of experiment [4] is ZR-75-1. The experiment can be described thus: Cell proliferation assay (GI50). Type of experiment: cell-based. The note with it: Homo sapiens, 48 h. How it is done:
as §1, §2, §3, §4

The subject of experiment [5] is SW-620. The experiment can be described thus: Cell proliferation assay (GI50). Type of experiment: cell-based. The note with it: Homo sapiens. The method, then: as §1, §2, §3, §4
For experiment [6], the system named is SK-Br-3. The experiment can be described thus: Cell proliferation assay (GI50). Type of experiment: cell-based. The note with it: Homo sapiens. How it is done:
as §1, §2, §3, §4

The test system of experiment [7] is MX-1. Put plainly: Cell proliferation assay (GI50). Type of experiment: cell-based. The settings on record: Homo sapiens, MX1. The method, then: as §1, §2, §3, §4
For experiment [8], the system named is NCI-H23. Put plainly: Cell proliferation assay (GI50). The settings on record: Homo sapiens. Type of experiment: cell-based. The method, then:
as §1, §2, §3, §4

The subject of experiment [9] is ZR-75-1. Put plainly: Caspase cascade activation assay (fluorogenic DEVD substrate). The settings on record: 48 h; for Caspase activity Ratio: ratio of net RFU of test compound to control. It is filed as cell-based, Human. How it is done:
(§5) Human breast cancer cell lines T-47D and ZR-75-1 were grown according to media component mixtures designated by American Type Culture Collection+10% FCS (Invitrogen Corporation), in a 5% CO2-95% humidity incubator at 37° C. T-47D and ZR-75-1 cells were maintained at a cell density between 50 and 80% confluency at a cell density of 0.1 to 0.6×10^6 cells/ml. Cells were harvested at 600×g and resuspended at 0.65×10^6 cells/ml into appropriate media+10% FCS. An aliquot of […] of cells was added to a well of a 96-well microtiter plate containing 2.5 μl of a 10% DMSO in RPMI-1640 media solution containing 0.16 to 100 μM of N′-(2-phenoxypyridine-3-carbonyl)-3-(trifluoromethyl)benzhydrazide (Example 1) or other test compound (0.016 to 10 μM final). An aliquot of 22.5 μl of cells was added to a well of a 384-well microtiter plate containing 2.5 μl of a 10% DMSO in RPMI-1640 media solution without test compound as the control sample. The samples were mixed by agitation and then incubated at 37° C. for 48 h in a 5% CO2-95% humidity incubator. After incubation, the samples were removed from the incubator and 25 μl of a solution containing 14 μM of N-(Ac-DEVD)-N′-ethoxycarbonyl-R110 (SEQ ID No:1) fluorogenic substrate (Cytovia, Inc.; WO99/18856), 20% sucrose (Sigma), 20 mM DTT (Sigma), 200 mM NaCl (Sigma), 40 mM Na PIPES buffer pH 7.2 (Sigma), and 500 μg/ml lysolecithin (Calbiochem) was added. The samples were mixed by agitation and incubated at room temperature. Using a fluorescent plate reader (Model SpectraMax Gemini, Molecular Devices), an initial reading (T=0) was made approximately 1-2 min after addition of the substrate solution, employing excitation at 485 nm and emission at 530 nm, to determine the background fluorescence of the control sample. After the 3 h incubation, the samples were read for fluorescence as above (T=3 h).
(§6) The Relative Fluorescence Unit values (RFU) were used to calculate the sample readings as follows:
(§7) RFU(T=3 h)−Control RFU(T=0)=Net RFU(T=3 h)
(§8) The activity of caspase cascade activation was determined by the ratio of the net RFU value for N′-(2-phenoxypyridine-3-carbonyl)-3-(trifluoromethyl)benzhydrazide (Example 1) or other test compound to that of control samples. The EC50 (nM) was determined by a sigmoidal dose-response calculation (Prism 2.0, GraphPad Software Inc.).

In experiment [10] the test system is T-47D. The description is as above. Type of experiment: cell-based, Human. The note with it: 48 h; for Caspase activity Ratio: ratio of net RFU of test compound to control; for EC50: Homo sapiens, T47D, read-out: Caspase potency EC50. The method, then: as §5, §6, §7, §8
Experiment [11] deals with K562. Put plainly: Cell proliferation assay (GI50). It is filed as cell-based. The settings on record: Homo sapiens. How it is done:
as §1, §2, §3, §4

Experiment [12] has as its system MX-1 cells. Put plainly: Clonogenic survival assay. It is filed as cell-based. The note with it: Homo sapiens, MX1, 48 h treatment, read-out: IC50 of inhibition of clonogenic survival. How it is done: (§9) T47D and MX-1 cells were grown according to the conditions recommended by American Type Culture Collection. In a well of a 96 well plate, 30,000 cells were seeded and treated with compound at the indicated concentrations for 48 hr in a 5% CO2-95% humidity incubator at 37° C. Control wells were treated with the same amount of solvent (DMSO) as the compound samples. After the indicated treatment time, the supernatant was removed to a sterile culture tube and the wells washed with phosphate buffered saline, and the adherent cells trypsinized for 5 min. The trypsinzed cells were added to the culture supernatant, cells were collected (1,200 rpm, 10 min), washed with phosphate buffered saline, and resupended in fresh media. The cells were counted for trypan blue negative cells, and the cells diluted with fresh media to 1,000 cells/ml. To a well of a 24-well plate, 0.1 ml of the cell suspension was added along with 1 ml of fresh media (cell suspensions were passed through a 22 G needle several times just before plating to form single cell suspensions). Plates are incubated in a 5% CO2-95% humidity incubator at 37° C. for 7-10 days. Colonies are counted when the sizes reached greater than 50 cells per colony. […] Colonies are rinsed with water and the colonies counted and the fraction surviving expressed as the percentage of the number of control colonies.

Experiment [13] concerns T47D cells. The experiment can be described thus: Clonogenic survival assay. The note with it: Homo sapiens, 48 h treatment, read-out: IC50 of inhibition of clonogenic survival. Type of experiment: cell-based. How it is done:
as §9

Experiment [14] deals with T-47D cells. Put plainly: Cell cycle arrest by propidium iodide flow cytometry. It is filed as cell-based, Human. The note with it: 1 μM, 24 h. How it is done: T-47D, a breast cancer cell line, was maintained and harvested as described in Example 43. 5×10^5 Cells were treated with 1 μM of N′-(2-phenoxypyridine-3-carbonyl)-3-(trifluoromethyl)benzhydrazide for 24 h at 37° C. As a control, cells were also incubated with equivalent amount of solvent (DMSO). Cells were harvested at 1,200 rpm and then transferred to 12×75 mm polystyrene tubes. Cells were then resuspended in 500 μl of 1% Na Citrate, 0.1% Triton X-100, and 50 μg/ml of propidium iodide and incubated at room temperature for 30 min followed by flow cytometer analysis. All flow cytometry analyses were performed on FACScalibur (Becton Dickinson) using Cell Quest analysis software. The x-axis plotted the amount of fluorescence and the y-axis is plotted the number of cells with the indicated fluorescence. The T-47D control cell population profile is seen in FIG. 1A and the increase in G2/M (M4) DNA content cells that were treated with N′-(2-phenoxypyridine-3-carbonyl)-3-(trifluoromethyl)benzhydrazide is seen in FIG. 1B.

Experiment [15] concerns Panc-1. Put plainly: Cell proliferation assay (GI50). Type of experiment: cell-based. The note with it: Homo sapiens. How it is done: as §1, §2, §3, §4
Experiment [16] deals with PC-3. Put plainly: Cell proliferation assay (GI50). Type of experiment: cell-based. The note with it: Homo sapiens. How it is done:
as §1, §2, §3, §4

Regarding `O=C(NN=Cc1cccc(C(F)(F)F)c1)c1cccnc1Oc1ccccc1` [Example 15, 2-Phenoxypyridine-3-carboxylic acid (3-trifluoromethylbenzylidene)-hydrazide], the “Selectivity of growth inhibition for breast cancer cells” value (“Selectivity of growth inhibition” for short) in [1] is on record as “selectively inhibits the growth of breast cancer cells”. The GI50 is 80 nM in experiment [2]; 60 nM in [2] (Homo sapiens, T47D); 250 nM in experiment [3]; 2000 nM in [4]; more than 10000 nM in experiment [5]; 20 nM in [6]. The GI50 in experiment [7] is 400 nM; in experiment [8] it was more than 10000 nM.
For `O=C(NNC(=O)c1cccnc1Oc1ccccc1)c1ccccc1O` [Example 8, N′-(2-Phenoxypyridine-3-carbonyl)-2-hydroxybenzhydrazide], the figures for the “Caspase activity Ratio” value in experiment [9] and in experiment [10] were 5.6 and 7.3, respectively. Besides, the EC50 in experiment [9] (Homo sapiens, read-out: Caspase potency EC50) worked out at 728 nM; in experiment [10] it was 744 nM. The “Selectivity of growth inhibition” value in [1] was “inhibiting the growth of both breast and non-breast cancer cells”. Also, the GI50 was found to be 600 nM in experiment [2]; 1000 nM in [2] (Homo sapiens, T47D); 800 nM in experiment [3]; 300 nM in experiment [4]; 1000 nM in experiment [5]; 450 nM in [11]. Also, the GI50 in experiment [6] worked out at 300 nM; in experiment [7] it was 1000 nM; in [8], 1000 nM.
For the compound `O=C(NNC(=O)c1cccnc1Oc1ccccc1)c1cccc(C(F)(F)F)c1` [Example 1, N′-(2-Phenoxypyridine-3-carbonyl)-3-(trifluoromethyl)benzhydrazide], in [9], the “Caspase potency EC50” value is “INACTIVE”. The “Caspase activity Ratio” value in experiment [9] was determined as 1.8; in experiment [10], 11.6. The 50% effective concentration (EC50) in experiment [10] was 464 nM. The “Selectivity of growth inhibition” value in [1] is recorded as “selectively inhibits the growth of breast cancer cells”. Moreover, the GI50 is 200 nM in experiment [2] (Homo sapiens, T47D); 400 nM in experiment [3]; 4500 nM in experiment [4]; more than 10000 nM in [5]; more than 10000 nM in experiment [15]; more than 10000 nM in experiment [11]. Also, the GI50 in experiment [6] was 40 nM; in [16], more than 10000 nM; in experiment [7], 400 nM; in [8], more than 10000 nM. The IC50 is approximately 600 nM in experiment [12] and approximately 1050 nM in experiment [13]. In addition, the “G2/M (M4) DNA content cells” value in [14] is recorded as “increase”.
